# Patent US5525627A, “Esters of acyl carnitines with long-chain aliphatic alcohols and pharmaceutical compositions containing same having antimycotic activity” (Sigma-Tau Industrie Farmaceutiche Riunite S.p.A., priority 1992, dated 1996)
# How the values were obtained:
# yeast-like fungi = experiment: MIC / MFC for yeast-like fungi, all strains; assay type: cell-based, Candida, Cryptococcus, Saccharomyces, Torulopsis; details: versus susceptible strains; read-out: Mean MIC values
# Method: (§1) The following strains were used (the number of strains is in brackets): Candida (13); Criptococcus (2); Saccharormyces (1); Torulopsis (1).
# (§2) Yeast Nitrogen Base supplemented with 0.15% asparagine and 1.0% glucose (as carbon source) was the medium utilized in the assays.
# (§3) This medium was buffered with 0.165 M 2-(N-morpholino) propane sulfonic acid (MOPS), a non-chelating buffer. […]
# (§4) The inoculum was prepared from an overnight broth culture (a 48-hour culture only for Cryptococcus) in Sabouraud broth and appropriately diluted to yield a final suspension containing approximately 5.0×10^6 Colony Forming Units per ml (CFU/ml), when compared to the Mc Farland's standard control (BRAY W. E., Clinical Laboratory Methods, 5th Ed. C. V. MOSBY, St. Louis, Mo, 1957).
# (§5) After further diluting (1:50), a […] volume of such fungal suspensions and an equal volume of the substance solutions were distributed into each well of a microtiter plate (96 wells, round bottom). Such a procedure eventually allowed for an "in vitro" antimycotic activity assay utilizing final fungal inocula of approximately 5.0×10^4 CFU/ml.
# (§6) The minimal fungicidal concentration was evaluated by spot-transferring onto Petri dishes, containing Sabouraud agar, 0.01-ml volumes of all the samples showing no visible fungal growth.
# [1] = tested on: Aspergillus fumigatus (2/A); experiment: MIC for filamentous fungi; assay type: cell-based; details: read-out: Minimal Inhibitory Concentration (MIC)
# Source text: (§7) The following strains were used (the number of strains is in brackets): Aspergillus (5); Fusarium (1); Mucor (1); Penicillium (1).
# (§8) The tested substances were: ST 712, ST 722, ST 982, ST 983, ST 1000, ST 1001, ST 1032, ST 1033, ST 1034, ST 1036, ST 1037, ST 1038, ST 1050, ST 1051, ST 1052, ST 1053. The assay medium was the same as the one used in the previous study. The conidia from 72-hour cultures in Sabouraud agar, collected by washing with Sabouraud medium and Tween 80 (one drop of Tween per 10 ml of medium), were utilized as inoculum (5.0×10^4 CFU/ml).
# (§9) The assay was performed using the same procedure as described for yeast-like fungi.
# (§10) Also the evaluation of MIC and MFC was as reported previously.
# [2] = tested on: Aspergillus fumigatus (C/1); experiment: MIC for filamentous fungi; assay type: cell-based; details: read-out: Minimal Inhibitory Concentration (MIC)
# Source text: as §7, §8, §9, §10
# Mucor mucedo (ATCC 7941) = experiment: MIC for filamentous fungi; assay type: cell-based; details: ATCC7941, read-out: Minimal Inhibitory Concentration (MIC)
# Source text: as §7, §8, §9, §10
# [3] = tested on: Aspergillus niger (ATCC 16404); experiment: MIC for filamentous fungi; assay type: cell-based; details: ATCC16404, read-out: Minimal Inhibitory Concentration (MIC)
# Source text: as §7, §8, §9, §10
# [4] = tested on: Aspergillus fumigatus (1/A); experiment: MIC for filamentous fungi; assay type: cell-based; details: read-out: Minimal Inhibitory Concentration (MIC)
# Source text: as §7, §8, §9, §10
# [5] = tested on: Aspergillus fumigatus (ATCC 28212); experiment: MIC for filamentous fungi; assay type: cell-based; details: ATCC28212, read-out: Minimal Inhibitory Concentration (MIC)
# Source text: as §7, §8, §9, §10
# [6] = tested on: Saccharomyces cerevisiae (ATCC 7752); experiment: MIC for yeast and yeast-like strains; assay type: cell-based; details: ATCC7752, 48 hours, 35° C., read-out: Minimal Inhibitory Concentration (MIC)
# Method: as §1, §2, §3, §4, §5
# [7] = tested on: Cryptococcus neoformans (4711); experiment: MIC for yeast and yeast-like strains; assay type: cell-based; details: 48 hours, 35° C., read-out: Minimal Inhibitory Concentration (MIC)
# Method: as §1, §2, §3, §4, §5
# [8] = tested on: Torulopsis candida (D.S.); experiment: MIC for yeast and yeast-like strains; assay type: cell-based; details: Suzukiozyma candida; 48 hours, 35° C.; read-out: Minimal Inhibitory Concentration (MIC)
# Method: as §1, §2, §3, §4, §5
# [9] = tested on: Candida tropicalis (5705); experiment: MIC for yeast and yeast-like strains; assay type: cell-based; details: 48 hours, 35° C., read-out: Minimal Inhibitory Concentration (MIC)
# Method: as §1, §2, §3, §4, §5
# Candida albicans (562) = experiment: MIC for yeast and yeast-like strains; assay type: cell-based; details: 48 hours, 35° C., read-out: Minimal Inhibitory Concentration (MIC)
# Method: as §1, §2, §3, §4, §5
# Candida albicans (A 54) = experiment: MIC for yeast and yeast-like strains; assay type: cell-based; details: 48 hours, 35° C., read-out: Minimal Inhibitory Concentration (MIC)
# Method: as §1, §2, §3, §4, §5
# Candida albicans (Ca 2) = experiment: MIC for yeast and yeast-like strains; assay type: cell-based; details: 48 hours, 35° C., read-out: Minimal Inhibitory Concentration (MIC)
# Method: as §1, §2, §3, §4, §5
# filamentous fungi = experiment: MIC / MFC for filamentous fungi, all strains; assay type: cell-based, Aspergillus, Fusarium, Mucor, Penicillium; details: versus susceptible strains; read-out: Mean MIC values
# Source text: as §7, §8, §9, §10
# [10] = tested on: Candida pseudotropicalis (EC 1); experiment: MIC for yeast and yeast-like strains; assay type: cell-based; details: Kluyveromyces marxianus; 48 hours, 35° C.; read-out: Minimal Inhibitory Concentration (MIC)
# Method: as §1, §2
# (§11) This medium was buffered with 0.165 M 2-(N-morpholino) propane sulfonic acid (MOPS), a non-chelating buffer.
# (§12) Antimicrob. Agents Cheroother. Aug. 34.8:1542-1545).
# as §4, §5
# [11] = tested on: Candida albicans (ATCC 2091); experiment: MIC for yeast and yeast-like strains; assay type: cell-based; details: ATCC2091, 48 hours, 35° C., read-out: Minimal Inhibitory Concentration (MIC)
# Method: as §1, §2, §11, §12, §4, §5
# [12] = Assessment of behaviour and mortality in mice (Irwin's method); design: species or system mice (male Crl:(CD-1)(ICR)BR); details: mouse, in vivo; oral, dose 1000 (unit inferred), 4 animals/dose
# Method: (§13) ASSESSMENT OF BEHAVIOUR AND MORTALITY IN MICE
# (§14) The assessment of normal behaviour in mice was carried out following S. Irwin's method (Psychopharmacologia, 13, 222 [1968]). This method allows alterations in some behavioural, neurophysiologic and neurovegetative parameters to be detected, which are directly observable by the researcher. The study was conducted using male Crl:(CD-1)(ICR)BR mice (Charles River-Italy) weighing 22-25 g. following oral administration of the compounds suspended in carboxymethylcellulose (0.5% by weight in H2 O) to groups of 4 animals/dose.
# (§15) The animals were continously kept under observation for five hours following treatment and twice a day in the subsequent five days. Mortality was also observed during the overall test period.
# mice = experiment: as above; design: species or system mice (male Crl:(CD-1)(ICR)BR); details: mouse, in vivo, po
# Method: as §13, §14, §15
# Candida albicans (PG) = experiment: MIC and MFC for yeast and yeast-like strains; assay type: cell-based; details: 48 hours, 35° C., read-out: Minimal Inhibitory Concentration (MIC)
# Method: as §1, §2, §11, §12, §4, §5, §6
structure (smiles),measurement,setting,value
"CCCCCCCCCCCOC(=O)C[C@H](C[N+](C)(C)C)OC(=O)C(C)C [ST 712, ISOBUTYRYL-L-CARNITINE UNDECYL ESTER CHLORIDE]",MIC,yeast-like fungi,9.37 µg/mL
same,MIC,[1],25 µg/mL
same,MIC,[2],25 µg/mL
same,MIC,Mucor mucedo (ATCC 7941),50 µg/mL
same,MIC,[3],50 µg/mL
same,MIC,[4],25 µg/mL
same,MIC,[5],25 µg/mL
same,MIC,[6],6.25 µg/mL
same,MIC,[7],3.12 µg/mL
same,MIC,[8],12.5 µg/mL
same,MIC,[9],3.12 µg/mL
same,MIC,Candida albicans (562),12.5 µg/mL
same,MIC,Candida albicans (A 54),12.5 µg/mL
same,MIC,Candida albicans (Ca 2),6.25 µg/mL
same,MIC,filamentous fungi,30 µg/mL
same,MIC,[10],12.5 µg/mL
same,MIC,[11],12.5 µg/mL
same,mortality at 120 h,[12],0%
same,Symptoms,mice,NONE
same,MIC,Candida albicans (PG),12.5 µg/mL
